Measured values: ChEMBL document CHEMBL1201862, “PubChem BioAssay data set” (2004)
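Results reflect a 48-hour exposure of cells in 96-well plates to compound at five concentrations. GI50: concentration for 50% inhibition of growth.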 The source made the active and inactive calls. No stated cut-off is given here; in the data, active = GI50 up to about 1.1 µM and inactive = higher.

Experiments:
Assay in all cases: growth of human tumour cells (NCI), 48 h
HCT-116 = system: HCT-116
UACC-62 = system: UACC-62
IGROV-1 = system: IGROV-1
OVCAR-5 = system: OVCAR-5
A549 = system: A549
HT-29 = system: HT-29
NCI-H23 = system: NCI-H23
MDA-N = system: MDA-N
CCRF-CEM = system: CCRF-CEM
K562 = system: K562
HL-60 = system: HL-60
OVCAR-3 = system: OVCAR-3
LOX IMVI = system: LOX IMVI
CAKI-1 = system: CAKI-1
SR = system: SR
T47D = system: T47D
PC-3 = system: PC-3
Hs-578T = system: Hs-578T
MDA-MB-435 = system: MDA-MB-435
SN12C = system: SN12C
NCI/ADR-RES = system: NCI/ADR-RES
OVCAR-8 = system: OVCAR-8
SK-MEL-2 = system: SK-MEL-2
SF-295 = system: SF-295
COLO 205 = system: COLO 205
SNB-75 = system: SNB-75
BT-549 = system: BT-549
OVCAR-4 = system: OVCAR-4
NCI-H460 = system: NCI-H460
UACC-257 = system: UACC-257
NCI-H522 = system: NCI-H522
HCT-15 = system: HCT-15
KM12 = system: KM12
ACHN = system: ACHN
DU-145 = system: DU-145
UO-31 = system: UO-31
Malme-3M = system: Malme-3M
SF-268 = system: SF-268
TK-10 = system: TK-10
MCF7 = system: MCF7
HOP-92 = system: HOP-92
786-0 = system: 786-0
MDA-MB-231 = system: MDA-MB-231
SW-620 = system: SW-620
SK-MEL-28 = system: SK-MEL-28
SK-MEL-5 = system: SK-MEL-5
U-251 = system: U-251
MOLT-4 = system: MOLT-4
SNB-19 = system: SNB-19
NCI-H226 = system: NCI-H226
A498 = system: A498
SF-539 = system: SF-539
SK-OV-3 = system: SK-OV-3
EKVX = system: EKVX
HOP-62 = system: HOP-62
RXF 393 = system: RXF 393
RPMI-8226 = system: RPMI-8226
M14 = system: M14

For `Nc1nc(Cl)cc(NCC2(CO)CCC(OCc3ccccc3)C2)n1` (stereo not drawn), the GI50 (HCT-116) was 16.9 µM (inactive), the GI50 (UACC-62) was 21.4 µM (inactive) and the GI50 (IGROV-1) was 18.2 µM (inactive). The GI50 (OVCAR-5) was 37.7 µM (inactive), the GI50 (A549) was 15.2 µM (inactive) and the GI50 (HT-29) was 11.1 µM (inactive). The GI50 (NCI-H23) was 0.641 µM (active), the GI50 (MDA-N) was 16.8 µM (inactive) and the GI50 (CCRF-CEM) was 14.6 µM (inactive). For the same molecule, the GI50 (K562) was 7.26 µM (inactive), the GI50 (HL-60) was 21.4 µM (inactive) and the GI50 (OVCAR-3) was 30.5 µM (inactive). The GI50 (LOX IMVI) was 2.83 µM (inactive), the GI50 (CAKI-1) was 8.09 µM (inactive) and the GI50 (SR) was 4.06 µM (inactive). The GI50 (T47D) was 1.39 µM (inactive), the GI50 (PC-3) was 8.24 µM (inactive) and the GI50 (Hs-578T) was 14.4 µM (inactive). For the same molecule, the GI50 (MDA-MB-435) was 14.8 µM (inactive), the GI50 (SN12C) was 8.89 µM (inactive) and the GI50 (NCI/ADR-RES) was 3.81 µM (inactive). The GI50 (OVCAR-8) was 22.1 µM (inactive), the GI50 (SK-MEL-2) was 21.3 µM (inactive) and the GI50 (SF-295) was 31 µM (inactive). For the same molecule, the GI50 (COLO 205) was 21.1 µM (inactive), the GI50 (SNB-75) was 12.4 µM (inactive) and the GI50 (BT-549) was 13.9 µM (inactive). The GI50 (OVCAR-4) was 12.1 µM (inactive), the GI50 (NCI-H460) was 19.3 µM (inactive) and the GI50 (UACC-257) was 12.8 µM (inactive). The GI50 (NCI-H522) was 1.31 µM (inactive), the GI50 (HCT-15) was 15 µM and the GI50 (KM12) was 21 µM (inactive). For the same molecule, the GI50 (ACHN) was 5.69 µM (inactive), the GI50 (DU-145) was 27.7 µM (inactive) and the GI50 (UO-31) was 11.3 µM (inactive). The GI50 (Malme-3M) was 20.8 µM (inactive), the GI50 (SF-268) was 26.2 µM (inactive) and the GI50 (TK-10) was 11.2 µM (inactive). The GI50 (MCF7) was 1.59 µM (inactive), the GI50 (HOP-92) was 3.57 µM (inactive) and the GI50 (786-0) was 35.2 µM (inactive). The GI50 (MDA-MB-231) was 7.45 µM (inactive), the GI50 (SW-620) was 60 µM (inactive) and the GI50 (SK-MEL-28) was 19.5 µM (inactive). The GI50 (SK-MEL-5) was 2.82 µM (inactive), the GI50 (U-251) was 29.9 µM (inactive) and the GI50 (MOLT-4) was 4.99 µM (inactive). For the same molecule, the GI50 (SNB-19) was 23.1 µM (inactive), the GI50 (NCI-H226) was 14.8 µM (inactive) and the GI50 (A498) was 8.24 µM (inactive). The GI50 (SF-539) was 29.7 µM (inactive), the GI50 (SK-OV-3) was 11.1 µM (inactive) and the GI50 (EKVX) was 10.2 µM (inactive). The GI50 (HOP-62) was 25.4 µM (inactive), the GI50 (RXF 393) was 27 µM (inactive) and the GI50 (RPMI-8226) was 34.4 µM (inactive). For the same molecule, the GI50 (M14) was 20.7 µM (inactive).
`CN(C)/C=N/CC(O)c1ccccc1` (stereo not drawn) was tested, and the GI50 (HCT-116) was > 100 µM (inactive), the GI50 (UACC-62) was > 100 µM (inactive) and the GI50 (IGROV-1) was > 100 µM (inactive). The GI50 (OVCAR-5) was > 100 µM (inactive), the GI50 (A549) was > 100 µM (inactive) and the GI50 (HT-29) was > 100 µM (inactive). For the same molecule, the GI50 (NCI-H23) was > 100 µM (inactive), the GI50 (MDA-N) was > 100 µM (inactive) and the GI50 (CCRF-CEM) was > 100 µM (inactive). For the same molecule, the GI50 (K562) was > 100 µM (inactive), the GI50 (HL-60) was > 100 µM (inactive) and the GI50 (OVCAR-3) was > 100 µM (inactive). The GI50 (LOX IMVI) was > 100 µM (inactive), the GI50 (CAKI-1) was > 100 µM (inactive) and the GI50 (SR) was > 100 µM (inactive). For the same molecule, the GI50 (T47D) was > 100 µM (inactive), the GI50 (PC-3) was > 100 µM (inactive) and the GI50 (Hs-578T) was 28.5 µM (inactive). For the same molecule, the GI50 (MDA-MB-435) was > 100 µM (inactive), the GI50 (SN12C) was > 100 µM (inactive) and the GI50 (NCI/ADR-RES) was > 100 µM (inactive). For the same molecule, the GI50 (SK-MEL-2) was > 100 µM (inactive), the GI50 (COLO 205) was > 100 µM (inactive) and the GI50 (SNB-75) was > 100 µM (inactive). The GI50 (BT-549) was > 100 µM (inactive), the GI50 (OVCAR-4) was > 100 µM (inactive) and the GI50 (NCI-H460) was > 100 µM (inactive). The GI50 (NCI-H522) was > 100 µM (inactive), the GI50 (HCT-15) was greater than 100 µM and the GI50 (KM12) was > 100 µM (inactive). The GI50 (ACHN) was > 100 µM (inactive), the GI50 (DU-145) was > 100 µM (inactive) and the GI50 (UO-31) was > 100 µM (inactive). The GI50 (Malme-3M) was > 100 µM (inactive), the GI50 (SF-268) was > 100 µM (inactive) and the GI50 (TK-10) was > 100 µM (inactive). The GI50 (MCF7) was > 100 µM (inactive), the GI50 (HOP-92) was > 100 µM (inactive) and the GI50 (786-0) was > 100 µM (inactive). For the same molecule, the GI50 (MDA-MB-231) was > 100 µM (inactive), the GI50 (SW-620) was > 100 µM (inactive) and the GI50 (SK-MEL-28) was > 100 µM (inactive). For the same molecule, the GI50 (SK-MEL-5) was > 100 µM (inactive), the GI50 (U-251) was > 10 µM (inactive) and the GI50 (MOLT-4) was > 100 µM (inactive). For the same molecule, the GI50 (SNB-19) was > 100 µM (inactive), the GI50 (NCI-H226) was > 100 µM (inactive) and the GI50 (A498) was > 100 µM (inactive). For the same molecule, the GI50 (SF-539) was > 100 µM (inactive), the GI50 (SK-OV-3) was > 100 µM (inactive) and the GI50 (EKVX) was > 100 µM (inactive). For the same molecule, the GI50 (HOP-62) was > 100 µM (inactive), the GI50 (RXF 393) was > 100 µM (inactive) and the GI50 (RPMI-8226) was > 100 µM (inactive). The GI50 (M14) was > 100 µM (inactive).
